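Here, GI50 denotes the concentration required for 50% inhibition of growth. The concentration for full growth arrest is given as TGI.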
Experiments:
Experiment in all cases: NCI anticancer screen, dose series, 384-well format
[1] = test system: 786-0 renal
[2] = test system: OVCAR-5 ovarian
[3] = test system: RPMI-8226 leukemia
[4] = test system: SF-268 CNS
[5] = test system: A498 renal
[6] = test system: COLO 205 colon
[7] = test system: SNB-75 CNS
[8] = test system: MDA-MB-468 breast
[9] = test system: HCT-15 colon
[10] = test system: A549 NSCLC
[11] = test system: NCI-H322M lung
[12] = test system: RXF 393 renal
[13] = test system: KM12 colon
[14] = test system: UACC-62 melanoma
[15] = test system: MCF7 breast
[16] = test system: UO-31 renal
[17] = test system: LOX IMVI melanoma
[18] = test system: SR leukemia
[19] = test system: SK-OV-3 ovarian
[20] = test system: HCT-116 colon
[21] = test system: EKVX NSCLC
[22] = test system: CAKI-1 renal
[23] = test system: MOLT-4 leukemia
[24] = test system: OVCAR-4 ovarian
[25] = test system: ACHN renal
[26] = test system: OVCAR-3 ovarian
[27] = test system: HT29 colon
[28] = test system: HS 578T breast
[29] = test system: HOP-62 NSCLC
[30] = test system: M14 melanoma
[31] = test system: OVCAR-8 ovarian
[32] = test system: BT-549 breast
[33] = test system: MDA-MB-435 melanoma
[34] = test system: HL-60(TB) leukemia
[35] = test system: SN12C renal
[36] = test system: PC-3 prostate
[37] = test system: SK-MEL-28 melanoma
[38] = test system: T-47D breast
[39] = test system: HOP-92 NSCLC
[40] = test system: SK-MEL-2 melanoma
[41] = test system: SF-295 CNS
[42] = test system: UACC-257 melanoma
[43] = test system: NCI-H522 lung
[44] = test system: U251 glioblastoma
[45] = test system: SW-620 colon
[46] = test system: NCI-H23 lung
[47] = test system: NCI/ADR-RES ovarian
[48] = test system: TK-10 renal
[49] = test system: SK-MEL-5 melanoma
[50] = test system: CCRF-CEM leukemia
[51] = test system: HCC-2998 colon
[52] = test system: MDA-MB-231 breast
[53] = test system: IGROV1 ovarian
[54] = test system: NCI-H226 lung
[55] = test system: SNB-19 CNS
[56] = test system: SF-539 CNS
[57] = test system: DU-145 prostate
[58] = test system: NCI-H460 NSCLC
[59] = test system: MALME-3M melanoma

O=C(Nc1ccc(OC(F)(F)Cl)cc1)c1cnc(N2CC[C@@H](O)C2)c(-c2ccn[nH]2)c1
GI50 [1]: 5.38 µM | TGI [1]: 17.2 µM | GI50 [2]: 12.1 µM | TGI [2]: 25.7 µM | GI50 [3]: 3.27 µM | TGI [3]: 12.2 µM | GI50 [4]: 10.6 µM | TGI [4]: 23.4 µM | GI50 [5]: 13.6 µM | TGI [5]: 26.8 µM | GI50 [6]: 5.01 µM | TGI [6]: 16.6 µM | GI50 [7]: 7.86 µM | TGI [7]: 20.9 µM | GI50 [8]: 3.89 µM | TGI [8]: 15 µM | GI50 [9]: 2.94 µM | TGI [9]: 10.9 µM | GI50 [10]: 13.3 µM | TGI [10]: 29.7 µM | GI50 [11]: 12.3 µM | TGI [11]: 25.1 µM | GI50 [12]: 3.84 µM | TGI [12]: 14.1 µM | GI50 [13]: 4.57 µM | TGI [13]: 15.4 µM | GI50 [14]: 11.6 µM | TGI [14]: 23.9 µM | GI50 [15]: 9.56 µM | TGI [15]: 21.9 µM | GI50 [16]: 11.6 µM | TGI [16]: 24.2 µM | GI50 [17]: 7.26 µM | TGI [17]: 20.2 µM | GI50 [18]: 1.94 µM | TGI [18]: 4.74 µM | GI50 [19]: 16 µM | TGI [19]: 30.7 µM | GI50 [20]: 10.9 µM | TGI [20]: 23.7 µM | GI50 [21]: 14 µM | TGI [21]: 28.8 µM | GI50 [22]: 8.07 µM | TGI [22]: 21.1 µM | GI50 [23]: 5.82 µM | TGI [23]: 18.3 µM | GI50 [24]: 6.92 µM | TGI [24]: 26.9 µM | GI50 [25]: 12.1 µM | TGI [25]: 29.4 µM | GI50 [26]: 11.1 µM | TGI [26]: 23.3 µM | GI50 [27]: 2.57 µM | TGI [27]: 6.27 µM | GI50 [28]: 12.6 µM | TGI [28]: 25.3 µM | GI50 [29]: 9.4 µM | TGI [29]: 22.7 µM | GI50 [30]: 10.5 µM | TGI [30]: 22.9 µM | GI50 [31]: 6.65 µM | TGI [31]: 19.5 µM | GI50 [32]: 14.8 µM | TGI [32]: 28.2 µM | GI50 [33]: 12 µM | TGI [33]: 24.8 µM | GI50 [34]: 2.77 µM | TGI [34]: 6.75 µM | GI50 [35]: 13.7 µM | TGI [35]: 26.8 µM | GI50 [36]: 13.6 µM | TGI [36]: 26.8 µM | GI50 [37]: 15 µM | TGI [37]: 28.5 µM | GI50 [38]: 2.97 µM | TGI [38]: 10.7 µM | GI50 [39]: 13.7 µM | TGI [39]: 26.8 µM | GI50 [40]: 15.4 µM | TGI [40]: 28.8 µM | GI50 [41]: 11.1 µM | TGI [41]: 23.2 µM | GI50 [42]: 9.12 µM | TGI [42]: 22.5 µM | GI50 [43]: 11.7 µM | TGI [43]: 24.3 µM | GI50 [44]: 7.26 µM | TGI [44]: 20 µM | GI50 [45]: 7.75 µM | TGI [45]: 19.7 µM | GI50 [46]: 12.3 µM | TGI [46]: 25.9 µM | GI50 [47]: 19.3 µM | TGI [47]: 41.9 µM | GI50 [48]: 10.8 µM | TGI [48]: 26.4 µM | GI50 [49]: 4.81 µM | TGI [49]: 17.2 µM | GI50 [50]: 3.01 µM | TGI [50]: 10.6 µM | GI50 [51]: 2.85 µM | TGI [51]: 8.48 µM | GI50 [52]: 10.4 µM | TGI [52]: 22.5 µM | GI50 [53]: 10.9 µM | TGI [53]: 23.6 µM | GI50 [54]: 4.76 µM | TGI [54]: 17 µM | GI50 [55]: 14.5 µM | TGI [55]: 27.9 µM | GI50 [56]: 10.1 µM | TGI [56]: 22.5 µM | GI50 [57]: 17.7 µM | TGI [57]: 32.8 µM | GI50 [58]: 3.95 µM | TGI [58]: 13.3 µM | GI50 [59]: 6.97 µM | TGI [59]: 20.5 µM

— PubChem BioAssay (NCI)
